Measured values published in ChEMBL document CHEMBL1132040, “Bioreductively-activated prodrugs for targeting hypoxic tissues: elimination of aspirin from 2-nitroimidazole derivatives” (Bioorg Med Chem Lett, 1999).

Key:
Format in all cases: ADME
[1] = Half life period at pH 7.4 was determined
[2] = Reductive elimination of leaving group was determined at pH 7.4; expressed as loss of parent
[3] = Half life period at pH 9.1 was determined

Activity [2]	T1/2 [3]	SMILES	T1/2 [1]
0.21 µM/J	~ 250 ms	Cn1c(COC(=O)c2ccccc2O)cnc1[N+](=O)[O-]	~ 70 ms
0.19 µM/J	~ 30 ms	CC(=O)Oc1ccccc1C(=O)OCc1cnc([N+](=O)[O-])n1C	–

SMILES	Activity [2]	T1/2 [3]	T1/2 [1]
Cn1c(CBr)cnc1[N+](=O)[O-]	0.68 µM/J	–	~ 0.3 ms
